In one assay the target is T1, Mouse LAG3 protein (Mus musculus, UniProt Q61790).
T1 sequence (Q61790 24-521): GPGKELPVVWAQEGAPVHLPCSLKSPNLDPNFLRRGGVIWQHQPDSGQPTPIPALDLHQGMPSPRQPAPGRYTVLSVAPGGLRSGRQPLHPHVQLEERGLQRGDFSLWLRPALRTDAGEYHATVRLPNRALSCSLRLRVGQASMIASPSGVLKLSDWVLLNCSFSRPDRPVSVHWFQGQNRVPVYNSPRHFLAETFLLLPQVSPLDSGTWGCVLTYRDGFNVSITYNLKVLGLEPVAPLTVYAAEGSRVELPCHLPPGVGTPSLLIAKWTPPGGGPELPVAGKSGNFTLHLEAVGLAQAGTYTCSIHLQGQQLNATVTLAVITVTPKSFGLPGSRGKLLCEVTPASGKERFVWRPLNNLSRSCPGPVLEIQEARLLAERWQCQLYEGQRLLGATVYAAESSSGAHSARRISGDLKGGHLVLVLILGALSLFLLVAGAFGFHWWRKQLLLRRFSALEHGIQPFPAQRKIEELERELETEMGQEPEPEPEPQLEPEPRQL
The assay can be described thus: SPR interaction assay, CM5 chip amino coupling, mouse LAG3. Type of assay: binding. The note with it: for pKd / Rmax / Note / kon / koff: ligand Mouse LAG3 protein; for Note: bound or not bound; for kon: read-out: Ka; for koff: read-out: Kd. The source says:
A surface plasmon is an electromagnetic wave on a metal surface and is generated by the interaction of photons and electrons which are freely vibrated. Surface plasmon resonance (SPR) is an optical phenomenon that occurs on the surfaces of two media, and such a phenomenon can be induced by photons or electrons. When light enters an optically thinner medium from an optically denser medium, the phenomenon of total reflection occurs, and an evanescent wave is generated and enters the optically thinner medium. When the totally reflected evanescent wave meets the plasmon wave on the metal surface, resonance may occur, the energy of the reflected light decreases, and a resonance peak occurs on the energy spectrum of the reflected light. Such a resonance is called surface plasmon resonance. The angle of incidence causing the surface plasmon resonance is called an SPR angle. An SPR biosensor provides a sensitive, non-labeled detection technique for monitoring intermolecular interactions in real time. The sensor detects the change in the SPR angle, and the SPR is related to the refractive index of the metal surface. When an analyte binds to the chip surface, the refractive index of the chip surface changes, thus causing the change in the SPR angle. This is the basic principle for the SPR biosensor to detect intermolecular interactions in real time. During the interaction analysis, the change in the SPR angle is recorded on the sensorgram in real time.
Through the information query, the theoretical isoelectric point of the LAG3 protein is about 9.82, and the amino coupling method was contemplated to immobilize the protein. Since the main ligands of the LAG3 protein are FGL1 and MHCII proteins, after the LAG3 protein was coupled, the FGL1 protein sampling method was used to verify the protein activity.
Protein coupling buffer solution: 1.05× PBS-P+; 1.02× PBS-P+
Interaction buffer solution: 1.0× PBS-P+, 5% DMSO; 1.0× PBS-P+, 2% DMSO
In this experiment, by using the CM5 chip amino coupling method, the human LAG3 protein was immobilized to the Fc2 or Fc3 channel, and the mouse LAG3 protein was immobilized to the Fc3 or Fc4 channel.
LAG3 protein coupling conditions were as follows: the concentration was about 25 µg/mL, the system was sodium acetate solution with a pH of 5.5, the chip activation time was 420 s, and the blocking time was 420 s.
LAG3 protein coupling conditions were as follows: the concentration was about 50 µg/mL, the system was sodium acetate solution with a pH of 4.5, the chip activation time was 420 s, and the blocking time was 420 s.

Assay [1] concerns mouse melanoma B16F10. Type of assay: in vivo. The note with it: 15 days. As for the experimental part: (§1) (1) 43 8-week-old female C57B/L mice were selected and divided into 5 cages. One preserved B16F10 tumor-bearing female C57L mouse was sacrificed by cervical dislocation. 75% alcohol was sprayed on the skin of the mouse in a laminar flow cabinet, and the tumor tissue of the tumor-bearing mouse was separated by sterilized surgical instruments and cut into a sterilized 5 mL homogenizer with ophthalmic scissors. The tumor tissue was slowly milled on ice to form a tumor fluid. The number of cells was 6.85 × 10^7 cells/mL as counted with a BioRad counting instrument. The tumor fluid was placed in an Erlenmeyer flask in an ice bath for later use. The tumor fluid was evenly aspirated using a 1 mL sterile syringe and inoculated 0.2 mL/C57/L mouse. After the inoculation was completed, the mice continued to be fed under the initial feeding conditions.
(2) Animal grouping and administration: On the second day after tumor fluid inoculation of C57B/L mice, 43 mice were randomly grouped: 10 mice in a control group, 8 mice in a Compound 4-20 mg/kg group, 8 mice in a Compound 4-30 mg/kg group, 8 mice in a Compound 4-40 mg/kg group, and 9 mice in a positive control drug cyclophosphamide CTX-100 mg/kg group. The mice were weighed and administered.
(3) Drug preparation: The corresponding amounts of the drugs were weighed according to the final concentrations of the experimental groups. The drugs of the Compound 4-20 mg/kg group and the Compound 4-30 mg/kg group were prepared with 0.25% CMCNa + Tween 80 and administered orally once a day. The drug of Compound 4-40 mg/kg was prepared with normal saline + Tween 80 and administered intraperitoneally. CTX was prepared with normal saline and administered intraperitoneally once. The mice in the control group were given 0.25% CMCNa solution orally.
(§2) (4) The animals were sacrificed, and the tumors were separated and weighed. The animals in each group were treated immediately 1 h after administration on the last day and weighed, and the tumor tissue was weighed.

Assay [2] concerns mouse melanoma B16F10. Type of assay: in vivo. As for the experimental part:
as §1, §2
Animal grouping and administration: On the second day after tumor fluid inoculation of C57B/L mice, tumor-bearing mice were randomly grouped: a control group, a Compound 8-5 mg/kg group, a Compound 8-10 mg/kg group, a Compound 8-20 mg/kg group, and a positive control drug cyclophosphamide CTX-100 mg/kg group. The animals were weighed and administered daily. The drugs to be tested were administered orally daily, and the positive control drug CTX was administered intraperitoneally once. After the experiment was completed, the body weights and tumor weights of the animals were weighed, and the tumor weight inhibition rate (%) was calculated.

Setting [3] is: B16F10, 40 mg/kg, table prints po, text says intraperitoneally.

Molecules are shown by their SMILES. pKd: −log10 of the molar value. Like-named read-outs stand apart in the source and are kept apart here.

With `CCCCCCOc1ccc2cc1-c1cc(ccc1OCCCCCC)C(=O)CCCCCC2=O` [Compound 4], on Mouse LAG3 protein, the “interaction with the mouse LAG3 protein” value was “interacts with the mouse LAG3 protein”, the pKd is 4.88, the Rmax is 5.214 RU and the Note result is recorded as “Bound”. Besides, at Mouse LAG3 protein, the kon turned out to be 1060 M⁻¹ s⁻¹ and the koff was 0.014 s⁻¹. In the assay on mouse melanoma B16F10 [1] (B16F10, 20 mg/kg po once a day), this compound gave an Inhibition rate of 55.12% and a Tumor weight of 1.304 ± 0.623 g. In the assay on mouse melanoma B16F10 [1] (B16F10, 30 mg/kg po once a day), this compound showed an Inhibition rate of 28.00% and a Tumor weight of 2.091 ± 1.199 g. For the same compound, in the assay with mouse melanoma B16F10 [1] (setting [3]), the Inhibition rate is 44.40% and the Tumor weight was determined as 1.615 ± 0.495 g.

Consider `CCCCCCOc1ccc(C(=O)O)cc1-c1cc(C(=O)NCCCCNC(=O)C(F)(F)F)ccc1OCCCCCC` [Compound 8], for which, at Mouse LAG3 protein, the “interaction with the mouse LAG3 protein” value is “interacts with the mouse LAG3 protein”, the pKd is 5.27, the Rmax came out at 3.955 RU and the Note result is on record as “Bound”. Moreover, on Mouse LAG3 protein, the kon was determined as 1870 M⁻¹ s⁻¹ and the koff is 0.0101 s⁻¹. In the assay on mouse melanoma B16F10 [2] (B16F10, 5 mg/kg orally daily), this compound registered an Inhibition rate of 16.94% and a Tumor weight of 1.50 ± 0.27 g. Also, in the assay with mouse melanoma B16F10 [2] (B16F10, 10 mg/kg orally daily), the Inhibition rate is listed as 19.78% and the Tumor weight was 1.45 ± 0.70 g. In the assay with mouse melanoma B16F10 [2] (B16F10, 20 mg/kg orally daily), the Inhibition rate was found to be 53.64% and the Tumor weight is on record as 0.80 ± 0.46 g.

The pKd is −log10 of the Kd, conventionally taken in molar units.

Source of the values: patent EP4527828A1, “BIPHENYL COMPOUND, PHARMACEUTICAL COMPOSITION, METHOD FOR PREPARING SAME, AND USE THEREOF” (Longivitron (Suzhou) Biotechnology Co., Ltd, priority 2022, dated 2023).
